Data as given in patent US12171821B2, “Toxoplasma gondii vaccine” (priority 2018, dated 2024).
“And” between values parts separate entries of the source, which are not always exact repeats. Equal entries are not always repeated.

How the values were obtained:
[1] = test system: T. gondii ME49 bradyzoites; test: Merozoite markers GRA11B/BRP1, immunofluorescence, infected cat intestinal monolayers; format: cell-based, Toxoplasma gondii; conditions: 200 μM fatty acid, 5 days of infection
Experimental: FIGS. 6A-B. Quantification of merozoites in cat tissue culture. A) Cat intestinal organoids were disassociated by trypsin then grown as monolayers on glass slides. Slides were divided into three different groups: not supplemented with fatty acid, supplemented with 200 μM oleic acid or supplemented 200 μM linoleic acid. Monolayers were infected with T. gondii MEM bradyzoites purified from brains of chronic infected mice at a 1:10 MOI. Five days after infection, staining for GRA11B and BRP1 along with DAPI, allowed the percentage of vacuoles positive for GRA11B and BRP1out of the total vacuoles was determined. Total number of parasitophorous vacuoles were counted by positive DAPI staining and confirmed by morphology with DIC. At least 50 parasitophorous vacuoles were counted per replicate. Three biological replicates were counted and on average 35% of the total vacuoles were positive far both GRA11B and BRP1 in the linoleic acid supplemented monolayers. *p-value=0.0126 with N=3 by two-tailed unpaired t test. Straining for both BRP1 and GRA11B was used to ensure that merozoite stages were counted. […] BRP1 is a rhoptry protein that was initially found in bradyzoites; however, it is also expressed in merozoite. […]

[2] = test system: T. gondii ME49 bradyzoites; test: Real-time PCR on ileum cDNA of infected Z-DNA binding protein knock out mice; format: in vivo, Toxoplasma gondii; conditions: homogenized mouse ileum cDNA
Experimental: Delta-6-desaturase inhibition. SC 26196 (Cayman) was solubilized in DMSO and used at 20 μM in mouse organoid monolayers. For in vivo treatment, the inhibitor was solubilized in 0.5% m/v methylcellulose and the mice were given 50 mg/kg every 12 hours by oral gavage (He et al., 2012). 4-week old C57BL/6J female mice deleted in Z-DNA-binding protein (Pittman et al., 2016) were divided into four different groups: uninfected control, T. gondii-infected without fatty acid supplementation, T. gondii infected with linoleic acid supplementation, and T. gondii-infected with linoleic acid and SC 26196 inhibitor. Each mouse supplemented with linoleic acid received 10 μL of 99% linoleic acid oil (MilliporaSigma Cat #843483) suspended in 0.5% Methylcellulose per day by oral gavage. Mice were infected with 1000 brain cysts purified as described above by oral gavage and euthanized 7 days post infection. Sample size was at least 2 mice per group and the experiment was repeated 5 times. Alternatively, each mouse was infected with one mouse brain at least 2 months postinfection with at least 1000 cysts. Mice were treated with SC 26196 until day 5 postinfection. Feces were collected from days 5-14 and oocysts enumerated by microscopy.
Real-time PCR on ileum cDNA. Z-DNA binding protein deletion mice ice with and without delta-6-desaturase inhibitor treatment were euthanized 7 days post infection. The ileum of each mouse was removed and homogenized in 1 mL of TRIzol. Total RNA was isolated according to manufacturer's protocol (Invitrogen) and treated with amplification grade Dnase I. cDNA was generated using the Invitrogen SuperScript III First-Strand Synthesis kit with random hexamer primers. GRA11B and SAG1 were used as markers of sexual and asexual stages, respectively. The T. gondii housekeeping gene TUB1A was used to normalize target gene expression. Real-time quantitative PCR was performed using Bio-Rad iTaq Universal SYBR Green Supermix on 311 an Applied Biosystems StepOnePlus Real-Time PCR system. The efficiency of each primer set was calculated from the slope of a 1:10 dilution standard curve of tachyzoite gDNA, where E=10^(−1/slope). The Pfaffl method (Pfaffl, 2001), which accounts for differences in efficiencies, was then used to calculate the relative gene expression of GRA11B and SAG1 per sample, in triplicate. Only wells with one melt curve temperature were used, indicating a single product. Primer sequences were as follows:
Statistical methods. All real-time PCR fecal samples were run in triplicate technical replicates. The difference between the mean target gene copy numbers was analyzed by two-tailed unpaired t tests. The real-time PCR intestinal samples were run in triplicate from two biological replicates per group. The difference between the mean relative expression of each target gene was analyzed by two-tailed unpaired t tests.

[3] = test system: asexual tachyzoite stage; conditions: prior work (Shamseddin et al., 2015); cited from earlier work
[4] = 7 days post infection, Mouse 1 and Mouse 2, wells 1-3

For `CCCCC/C=C\C/C=C\CCCCCCCC(=O)O` [linoleic acid], the “parasites undergoing sexual development / merozoite stage markers GRA11B and BRP1 (staining)” value [1] was “commonly seen only with linoleic acid supplementation”, the “GRA11B raw Ct values” [2, 4] was 33.43 and 36.02 and 35.59 and 38.24 and 39.05 and the “SAG1 raw Ct values” [2, 4] was 32.63 and 31.52 and 32.31 and 31.46 and 32.97 and 31.72. The “GRA11B Ct mean” value ([2]; Mouse 1 and Mouse 2) was 37.13 and 36.02, the “SAG1 Ct mean” value ([2]; Mouse 1 and Mouse 2) was 32.63 and 31.57 and the “cytotoxicity for the asexual tachyzoite stage” value [3] was “cytotoxic”.
